Here are results for 44 molecules from patent US7060822B1, “2-pyrazolin-5-ones” (Abbott GmbH & Co. KG, priority 1999, dated 2006).

Regarding `Cc1cc(C=C2C(=O)NN=C2C2CC2)[nH]c1C` [Example 1, 3-Cyclopropyl-4-[(4,5-dimethylpyrrol-2-yl)methylene]-2-pyrazolin-5-one], the melting point is 220 to 222 °C.

The molecule `O=C1NN=C(CCc2ccccc2)C1=Cc1c[nH]c2ccccc12` [Example 217, 4-[(Indol-3-yl)methylene]-3-phenylethyl-2-pyrazolin-5-one] showed a melting point of 268 to 270 °C.

The molecule `NC(=O)CCC1=NNC(=O)C1=Cc1c[nH]c2ccccc12` [Example 258, 3-(2-Aminocarbonylethyl)-4-[(indol-3-yl)methylene]-2-pyrazolin-5-one] gave a melting point of 280 to 281 °C.

With `CCOC(=O)c1c(C)[nH]c(C=C2C(=O)NN=C2c2cccc(N)c2)c1C` [Example 162, 3-(3-Aminophenyl)-4-[(3,5-Dimethyl-4-ethoxycarbonylpyrrol-2-yl)methylene]-2-pyrazolin-5-one], the melting point lay within 214 to 216 °C.

With `COC(=O)c1ccc(CCC2=NNC(=O)C2=Cc2cc3ccccc3[nH]2)cc1` [Example 309, 3-(4-Methoxycarbonylphenylethyl]-4-[(indol-2-yl)methylene]-2-pyrazolin-5-one], the melting point is 210 to 212 °C.

Molecule `Cn1cc(C=C2C(=O)NN=C2N)c2ccccc21` [Example 299, 3-Amino-4-[(1-methylindol-3-yl)methylene]-2-pyrazolin-5-one] displayed a melting point of 246 to 247 °C.

With `O=C1NN=C(CCc2ccc(O)cc2)C1=Cc1c[nH]c2ncccc12` [Example 341, 4-[(7-Azaindol-3-yl)methylene]-3-(4-hydroxyphenylethyl)-2-pyrazolin-5-one], the melting point was 270 to 272 °C.

For the molecule `Cc1c[nH]c(C=C2C(=O)NN=C2c2nc3ccccc3s2)c1` [Example 69, 3-(Benzothiazol-2-yl)-4-[(4-methylpyrrol-2-yl)methylene]-2-pyrazolin-5-one], the melting point was in the range of 327 to 329 °C.

Molecule `COc1ccc2[nH]c(C=C3C(=O)NN=C3OC(C)C)cc2c1` [Example 314, 3-Isopropoxy-4-[(5-methoxyindol-2-yl)methylene]-2-pyrazolin-5-one] returned a melting point of 219 to 220 °C.

Turning to `CCOC1=NNC(=O)C1=Cc1[nH]c(C)c(C(=O)NCCN(C)C)c1C` [Example 155, 4-{[3,5-Dimethyl-4-(2-dimethylaminoethylaminocarbonyl)pyrrol-2-yl)methylene}-3-ethoxy-2-pyrazolin-5-one], the melting point is 158 to 160 °C.

`Cc1cc(C)c(C=C2C(=O)NN=C2c2cccnc2)[nH]1` returned a melting point of 235 to 238 °C.

The molecule `Cc1cccc2c(C=C3C(=O)NN=C3C3CC3)cn(C)c12` [Example 290, 3-Cyclopropyl-4-[(1,7-dimethylindol-3-yl)methylene]-2-pyrazolin-5-one] displayed a melting point of 258 to 260 °C.

`O=C1NN=C(COc2cccc(Cl)c2)C1=Cc1c[nH]c2ccccc12` [Example 229, 3-(3-Chlorophenyloxymethyl)-4-[(indol-3-yl)methylene]-2-pyrazolin-5-one] yielded a melting point of 265 to 268 °C.

Molecule `CCc1c(C)[nH]c(C=C2C(=O)NN=C2C2CC2)c1C` [Example 66, 3-Cyclopropyl-4[(3,5-dimethyl-4-ethylpyrrol-2-yl)methylene]-2-pyrazolin-5-one] came in with a melting point of 206 to 210 °C.

The molecule `Cc1cc(C)c(C=C2C(=O)NN=C2c2cccs2)[nH]1` [Example 129, 4-[(3,5-dimethylpyrrol-2-yl)methylene]-3-(2-thienyl)-2-pyrazolin-5-one] registered a melting point of 235 to 237 °C.

`O=C1NN=C(Cc2ccccc2)C1=Cc1c[nH]c2ccccc12` [Example 210, 3-Benzyl-4-[(indol-3-yl)methylene]-2-pyrazolin-5-one] displayed a melting point of 292 to 295 °C.

With `Cc1c(C=C2C(=O)NN=C2OC(C)C)[nH]c2ccccc12` [Example 322, 3-Isopropoxy-4-[(3-methylindol-2-yl)methylene]-2-pyrazolin-5-one], the melting point fell in the range of 241 to 243 °C.

Take `Cc1ccc(NC2=NNC(=O)C2=Cc2c[nH]c3ccccc23)cc1` [Example 221, 4-[(Indol-3-yl)methylene]-3-(4-methylphenylamino)-2-pyrazolin-5-one]: the melting point was 255 to 257 °C.

In turn, `O=C1NN=C(CCc2ccccc2)C1=Cc1ccc[nH]1` [Example 12, 3-Phenylethyl-4-[(pyrrol-2-yl)methylene]-2-pyrazolin-5-one] had a melting point of 145 to 147 °C.

`Cn1cc(C=C2C(=O)NN=C2c2cnccn2)c2ccc(C(=O)O)cc21` [Example 304, 4-[(6-Carboxy-1-methylindol-3-yl)methylene]-3-pyrazinyl-2-pyrazolin-5-one] had a melting point of more than 300 °C.

In turn, `Cc1cc(C)c(C=C2C(=O)NN=C2c2nc3ccccc3s2)[nH]1` [Example 133, 3-(Benzothiazol-2-yl)-4-[(3,5-dimethylpyrrol-2-yl)methylene]-2-pyrazolin-5-one] registered a melting point of 295 to 297 °C.

Turning to `O=C1NN=C(c2cccnc2)C1=Cc1c[nH]c2ccccc12`, the melting point is 305 to 307 °C.

In turn, `Nc1ccc(CCC2=NNC(=O)C2=Cc2c[nH]c3ccccc23)cc1` [Example 243, 3-(4-Aminophenylethyl)-4-[(indol-3-yl)methylene]-2-pyrazolin-5-one] came in with a melting point of 244 to 246 °C.

The molecule `O=C1NN=C(COc2ccc(-c3ccccc3)cc2)C1=Cc1c[nH]c2ccccc12` [Example 232, 4-[(Indol-3-yl)methylene]-3-(4-phenylphenyloxymethyl)-2-pyrazolin-5-one] showed a melting point of 295 to 296 °C.

In the case of `Cc1ccc(NC2=NNC(=O)C2=Cc2ccc[nH]2)cc1` [Example 15, 3-(4-Methylphenylamino)-4-[(pyrrol-2-yl)methylene]-2-pyrazolin-5-one], the melting point lay within 256 to 258 °C.

The molecule `CC(C)OC1=NNC(=O)C1=Cc1cn(C)c2ccccc12` [Example 248, 3-Isopropoxy-4-[(1-methylindol-3-yl)methylene]-2-pyrazolin-5-one] came in with a melting point of 239 to 240 °C.

As to `CCOC1=NNC(=O)C1=Cc1ccc(Cl)[nH]1` [Example 113, 4-[(5-Chloropyrrol-2-yl)methylene]-3-ethoxy-2-pyrazolin-5-one], the melting point was 170 to 172 °C.

The molecule `CC(C)OC1=NNC(=O)C1=Cc1cccn1C` [Example 43, 3-Isopropoxy-4-[(1-methylpyrrol-2-yl)methylene]-2-pyrazolin-5-one] gave a melting point of 199 to 201 °C.

Molecule `Cc1cc(C)c(C=C2C(=O)NN=C2C2CC2)[nH]1` [Example 61, 3-Cyclopropyl-4-[(3,5-dimethylpyrrol-2-yl)methylene]-2-pyrazolin-5-one] came in with a melting point of 193 to 195 °C.

In the case of `O=C1NN=C(C2CCOC2)C1=Cc1cc2ccccc2[nH]1` (centres unmarked) [Example 316, 4-[(Indol-2-yl)methylene]-3-(tetrahydrofuran-3-yl)-2-pyrazolin-5-one], the melting point was in the range of 180 to 183 °C.

On to `CC(C)OC1=NNC(=O)C1=Cc1c[nH]cn1` [Example 366, 4-[(Imidazol-4-yl)methylene]-3-isopropoxy-2-pyrazolin-5-one], for which the melting point lay in the range of 259 to 260 °C.

In the case of `O=C1NN=C(C2CCC2)C1=Cc1cn(CCCCO)c2ccccc12` [Example 286, 3-Cyclobutyl-4-{[1-(4-hydroxybutyl)indol-3-yl]methylene}-2-pyrazolin-5-one], the melting point is 220 to 222 °C.

Molecule `Cc1[nH]c(C=C2C(=O)NN=C2c2ccno2)c(C)c1CN(C)C` [Example 169, 4-[(3,5-Dimethyl-4-dimethylaminomethylpyrrol-2-yl)methylene]-3-(5-isoxazolyl)-2-pyrazolin-5-one] came in with a melting point of 161 to 163 °C.

As to `CCOC1=NNC(=O)C1=Cc1cc(Br)c[nH]1` [Example 112, 4-[(4-Bromopyrrol-2-yl)methylene]-3-ethoxy-2-pyrazolin-5-one], the melting point lay within 242 to 244 °C.

Consider `Cc1ccc(OCC2=NNC(=O)C2=Cc2ccc[nH]2)cc1` [Example 9, 3-(4-Methylphenyloxymethyl)-4-[(pyrrol-2-yl)methylene]-2-pyrazolin-5-one], for which the melting point lay in the range of 207 to 210 °C.

As to `COc1ccc(NC2=NNC(=O)C2=Cc2c[nH]c3ccccc23)cc1` [Example 222, 4-[(Indol-3-yl)methylene]-3-(4-methoxyphenylamino)-2-pyrazolin-5-one], the melting point was 265 to 267 °C.

In turn, `CCOC(=O)c1c[nH]c(C=C2C(=O)NN=C2C2CC2)c1-c1ccccc1` [Example 140, 3-Cyclopropyl-4-[(4-ethoxycarbonyl-3-phenylpyrrol-2-yl)methylene]-2-pyrazolin-5-one] gave a melting point of 218 to 220 °C.

As to `NC1=NNC(=O)C1=Cc1c[nH]c2ncccc12` [Example 337, 3-Amino-4-[(7-azaindol-3-yl)methylene]-2-pyrazolin-5-one], the melting point was more than 300 °C.

On to `Cc1ccc(C=C2C(=O)NN=C2c2cccnc2)[nH]1`, for which the melting point is 210 to 212 °C.

`CCc1c(C)[nH]c(C=C2C(=O)NN=C2c2ccccc2)c1C` [Example 146, 4-[(3,5-Dimethyl-4-ethylpyrrol-2-yl)methylene]-3-phenyl-2-pyrazolin-5-one] came in with a melting point of 274 to 275 °C.

Molecule `CCN(CC)CCc1c(C)[nH]c(C=C2C(=O)NN=C2c2ccncn2)c1C` [Example 208, 4-{[4-(2-Diethylaminoethyl)-3,5-dimethylpyrrol-2-yl]methylene}-3-(4-pyrimidinyl)-2-pyrazolin-5-one] came in with a melting point of 220 °C.

`O=C1NN=C(C2CCCCC2)C1=Cc1cn(CCCCO)c2ccccc12` [Example 266, 3-Cyclohexyl-4-{[1-(4-hydroxybutyl)indol-3-yl]methylene}-2-pyrazolin-5-one] displayed a melting point of 226 to 227 °C.

Take `CCOC(=O)c1c(C)[nH]c(C=C2C(=O)NN=C2OCC)c1C` [Example 158, 4-[(3,5-Dimethyl-4-ethoxycarbonylpyrrol-2-yl)methylene]-3-ethoxy-2-pyrazolin-5-one]: the melting point is 232 to 234 °C.

Turning to `CCc1c(C)[nH]c(C=C2C(=O)NN=C2C2CCOC2)c1C` (centres unmarked) [Example 94, 4-[(3,5-Dimethyl-4-ethylpyrrol-2-yl)methylene]-3-(tetrahydrofuran-3-yl)-2-pyrazolin-5-one], the melting point is 163 to 165 °C.
